From US20050143358A1, “Methods for reducing body fat using vitamin D compounds” (Deltanoid Pharmaceuticals, Inc., priority 2003, published 2005)
Entries after “also recorded” stand apart in the source; their conditions may differ.

Key:
ovariectomized rats = assay: Whole body DEXA body composition in ovariectomized rats (Example 3); format: in vivo, rat
Description: FIG. 1 is a flow-chart illustrating the experimental design of the investigations described herein. Female Sprague Dawley rats (Taconic, German Town, N.Y.) were placed on a purified diet of 0.5% calcium and 0.4% phosphorus (AIN-76A Rodent Diet, prepared by Research Diet, Inc., New Brunswick, N.J.). At 4 months of age, a first subset (20) of the animals was sham-operated while a second subset (90) was ovariectomized. The time of ovariectomy is designated as week 0. Eight weeks after this surgery, the ovariectomized animals were divided into experimental groups receiving the following dosing regimen: 2MD, at doses of 0.5, 1.0, 2.5, 5.0 and 10 ng/kg/day; calcitriol (the active form of vitamin D), at doses of 50 ng/kg/day and 200 ng/kg/day; and human parathyroid hormone hPTH, at doses of 20 μg/kg/day. The 2MD and the calcitriol were administered orally in 100 μl of vegetable oil delivered to the back of the tongue by a throat tube, while the hPTH was administered sub-cutaneously.
Serum calcium was measured by tail bleeding at week 14 ([…]), week 21 and week 24. At week 24, the animals were sacrificed and the following endpoint measurements were taken: whole body DEXA; bone markers: osteocalcin and deoxypyridinoline (DPD); peripheral quantitative computed tomography (pQCT) of the distal femoral metaphysis (DFM) and femoral shaft (FS); micro-computerized tomography (micro-CT) of the DFM; serum parathyroid hormone (PTH); histomorphometry of the proximal tibial metaphysis (PTM), lumbar vertebra 3 (LV3) and trabecular separation (TS); and bone strength of the DFM, FS and lumbar vertebra 5 (LV5).
At week 0, the animals underwent surgical treatment as explained above. The animals were allowed to recuperate for 8 weeks before the dosing regimen began (0 wk). At 24 weeks post-surgery the animals were sacrificed and endpoint measurements were taken as explained above.

osteoblast cell line = conditions: Yamamoto et al., J. Biol. Chem. 278, 31756 (2003); cited from earlier work
[1] = studies described in Shevde et al.; cited from earlier work
[2] = cited from earlier work
human leukemia cells = conditions: biological testing of 19-nor-analogs; cited from earlier work
[3] = 10 ng/kg/day oral, DEXA, FIG. 3
[4] = 10 ng/kg/day oral, DEXA, FIG. 4
[5] = doses of at least 2.5 ng/kg/day, DEXA, FIG. 4
[6] = 200 ng/kg/day oral, DEXA, FIG. 4

With `C=C1[C@H](O)CC(=C/C=C2\CCC[C@]3(C)[C@@H]([C@@H](C)CCCC(C)(C)O)CC[C@@H]23)C[C@H]1O` [2MD, 2-methylene-19-nor-(20S)-1α,25 dihydroxyvitamin D3] the “percent body fat compared to ovariectomized/vehicle controls” value (ovariectomized rats; 0.5 ng/kg/day oral, DEXA, FIG. 3) was “little to no effect; also recorded: noticeable trend for a reduced increase”, the “percent body fat compared to ovariectomized/vehicle controls” value (ovariectomized rats; 1 ng/kg/day oral, DEXA, FIG. 3) was “little to no effect” and the “percent body fat compared to ovariectomized controls” value (ovariectomized rats; 5 ng/kg/day oral, DEXA, FIG. 3) was “significant decrease”. The “body fat component compared to ovariectomized-vehicle controls” value (ovariectomized rats; 5 ng/kg/day oral, DEXA, FIG. 4) was “significantly less body fat”, the “bone mineral content (BMC) component compared to sham-operated controls” value (ovariectomized rats; 5 ng/kg/day oral, DEXA, FIG. 4) was “an increase” and the “lean component compared to sham-operated controls” value (ovariectomized rats; 5 ng/kg/day oral, DEXA, FIG. 4) was “an increase”. For the same molecule, the “total body weight compared to sham/vehicle controls” value (ovariectomized rats; 5 ng/kg/day oral, DEXA, FIG. 4) was “significantly increased”, the “reduction in body fat compared with calcitriol at 200 ng/kg/day” value (ovariectomized rats; 5 ng/kg/day oral, FIG. 3) was “as great an effect” and the “percent body fat compared to ovariectomized controls” value (ovariectomized rats; [3]) was “significant decrease”. For the same molecule, the “percent body fat compared to sham-operated controls” value (ovariectomized rats; [3]) was “noticeably less percent body fat”, the “body fat component compared to ovariectomized controls” value (ovariectomized rats; [4]) was “significantly lower” and the “body fat component compared to sham-operated controls” value (ovariectomized rats; [4]) was “less body fat”. The “body weight compared to ovariectomized controls” value (ovariectomized rats; [4]) was “significantly reduced”, the “lean body weight plus bone mineral content relative to sham operated animals” value (ovariectomized rats; [4]) was “increased” and the “lean body weight relative to sham operated animals” value (ovariectomized rats; [4]) was “increased”. For the same molecule, the “total body weight compared to sham-control” value (ovariectomized rats; [4]) was “virtually the same”, the “decrease in the fat component compared with the group receiving 200 ng/kg/day calcitriol” value (ovariectomized rats; 10 ng/kg/day oral, FIG. 3) was “greater decrease” and the “increase in lean body component and bone mineral component compared with calcitriol at 50 ng/kg/day” value (ovariectomized rats; DEXA, FIG. 4) was “more positive effect”. The body fat content (ovariectomized rats; OVX rats, 2MD 10 ng/kg/day oral, DEXA at week 24 (sham-operated group 25%)) was 20%, the “bone mineral content (BMC) relative to sham-operated or ovariectomized controls” value (ovariectomized rats; [5]) was “noticeable increase” and the “lean body weight relative to sham-operated or ovariectomized controls” value (ovariectomized rats; [5]) was “noticeable increase”. The “fat component relative to OVX-controls” value (ovariectomized rats; starting at the 1 ng/kg/day dose, DEXA, FIG. 4) was “trend for a decrease”, the “activity relative to calcitriol in inducing genes in the osteoblast cell line” value (osteoblast cell line) was “at least 100 fold” and the “intestinal calcium transport activity” value [1] was “low”. The “bone calcium mobilization activity” value ([2]; studies described in Shevde et al.) was “high”.

In the case of `C=C1/C(=C\C=C2/CCC[C@]3(C)[C@@H]([C@H](C)CCCC(C)(C)O)CC[C@@H]23)C[C@@H](O)C[C@@H]1O` [calcitriol, 1α,25-dihydroxyvitamin D3, reference compound], the “percent body fat compared to ovariectomized controls” value (ovariectomized rats; 50 ng/kg/day oral, DEXA, FIG. 3) is reported as “at most only a minor difference”, the “percent body fat compared to ovariectomized controls” value (ovariectomized rats; 200 ng/kg/day oral, DEXA, FIG. 3) is reported as “significant decrease” and the “body fat compared to ovariectomized controls” value (ovariectomized rats; [6]) is reported as “less body fat”. The “body fat compared to sham-operated controls” value (ovariectomized rats; [6]) was “noticeable increase in body fat”, the “body weight compared to ovariectomized controls” value (ovariectomized rats; calcitriol group, DEXA, FIG. 4) was “only a tendency for reduction” and the “overall body weight compared to sham-controls” value (ovariectomized rats; calcitriol group, DEXA, FIG. 4) was “increase in overall body weight”. For the same molecule, the “reduction of total body weight” value (ovariectomized rats; even at much higher doses than 2MD) was “did not act to significantly reduce”.

For `C[C@H](CCCC(C)(C)O)[C@H]1CC[C@H]2/C(=C/C=C3C[C@@H](O)C[C@H](O)C3)CCC[C@]12C` [1α,25-dihydroxy-19-nor-vitamin D3, reference compound], the calcium mobilizing activity ([2]; biological testing of 19-nor-analogs) is given as “very low” and the “potency in inducing cellular differentiation” value (human leukemia cells) is given as “high potency”.

B1: hPTH: human parathyroid hormone hPTH, administered sub-cutaneously at 20 μg/kg/day (peptide, UniProt P01270 32-115, looked up)
Parathyroid hormone: SVSEIQLMHNLGKHLNSMERVEWLRKKLQDVHNFVALGAPLAPRDAGSQRPRKKEDNVLVESHEKSLGEADKADVNVLTKAKSQ
modifications: Parathyroid hormone
notes: human parathyroid hormone hPTH, administered sub-cutaneously at 20 μg/kg/day
In the case of B1, the “percent body fat compared to ovariectomized controls” value (ovariectomized rats; 20 μg/kg/day sub-cutaneously, DEXA, FIG. 3) is reported as “at most only a minor difference”.
